{"source": "patent US5770363A", "about": "“Methods for diagnosing human male infertility” (priority 1995, dated 1998)", "key": {"[1]": {"test_system": "permeabilized human sperm", "assay": "DTT (XEIM) pretreatment of permeabilized human sperm before HSAA", "assay_type": "cell-based", "details": "50 mM DTT in XEIM, 45 minutes on ice", "procedure": "On the day that the diagnostic method is to be performed, the samples are incubated for 30 minutes at 37° C.; each sample is then suspended in 10 ml of nuclear isolation medium (NIM, 200 mM sucrose, 2.4 mM MgCl2, 10 mM Tris-Hcl and 5 mM maleic acid, pH 7.4). A sperm count is taken and an aliquot (containing 20 million sperm) is pelleted in a centrifuge for 10 minutes at 400×g, then resuspended in 10 ml of NIM containing 0.05% lysolecithin and 1 μg/ml soybean trypsin inhibitor. The mixture is kept at room temperature for 5 minutes and the sperm repelleted as before, then washed, first in NIM with 3% BSA and then with NIM containing 0.4% BSA, as described by Lohka and Masui^1. Sperm will finally be suspended in Xenopus Extract Isolation Medium (XEIM, 10 mM Tris-HCL, pH 7.5, 1.5 mM MgCl2, 100 mM KCl and 50 mM DTT) at a concentration of 25,000 sperm/μl and kept on ice (between 0° C. and 4° C.) for 45 minutes before mixing with the frog egg extract. […] Such may be the result of reducing the protamines that in mammalian sperm are cross-linked by intermolecular disulfide bonds.^67 […]"}, "male reproductive system": {"test_system": "male reproductive system", "details": "in vivo; cited from earlier work"}, "[2]": {"test_system": "human sperm nuclei (chromatin decondensation)", "assay": "Human sperm activation assay (HSAA): chromatin decondensation of chemically treated, permeabilized human sperm in Xenopus laevis egg extract", "assay_type": "cell-based", "details": "for effect on sperm chromatin decondensation, in words (SEGS): SEGS-treated human sperm in vitro; for effect on decondensation, in words (hydroxylamine alone): 5 μM hydroxylamine; for reversal of SEGS crosslinks / restoration of decondensation, in words: SEGS-treated sperm, then hydroxylamine"}, "human sperm nuclei [3]": {"test_system": "human sperm nuclei", "details": "extract containing aphidicolin; cited from earlier work"}, "DNA polymerase alpha": {"test_system": "DNA polymerase alpha", "details": "cited from earlier work"}, "human sperm nuclei [4]": {"test_system": "human sperm nuclei", "assay": "HSAA with frog egg extract ± aphidicolin (decondensation, recondensation, DNA synthesis of sperm nuclei)", "assay_type": "cell-based", "procedure": "A HSAA will be set up using normal control sperm. After addition of the sperm to the egg extract containing BrdUrd (10 μM, 92) in place of ^3 H-TTP, aliquots will be taken at 15 minute time intervals throughout the 3 hours of the HSAA, with cytopreps made as previously described. However, instead of performing autoradiography, the BrdUrd staining protocol of Royere et al (1988)^131, which reference is specifically incorporated herein by reference for this purpose, will be used. The cytopreps will be fixed in cold methanol-acetic acid (3:1 v/v) followed by an RNase treatment.\nThe procedure requires that the DNA be partially denatured to expose incorporated BrdUrd to the specific antibody. The anti-BrdUrd antibodies that have been developed so far only bind BrdUrd in single-stranded DNA. The DNA-denaturing step will be done by placing the cytoprep slides in Copeland jars containing distilled water at 95° C. for 10 minutes. The slides will then be transferred into Copeland jars containing ice cold distilled water for 2 minutes and the sperm nuclei stained using anti-BrdUrd antibody (Boehringer Mannheim, mouse IgG) in PBS as the manufacturer's recommended dilution, followed by rhodamine-conjugated Goat anti-mouse IgG. The stained nuclei will be analyzed individually in our image analysis system.\nAphidicolin is described in Ikegami et al (1978)^101. This study will use sperm shown previously to respond normally in the HSAA.\nFluorescence intensities will be determined as previously described and plotted as fluorescence units above background fluorescence.\nWe will run a duplicate HSAA±aphidicolin (10 μg/ml), except minus tritiated thymidine triphosphate. After incubation, the sperm will be washed in PBS, fixed with 70% ethanol, centrifuged, and the fixative removed. The sperm will be resuspended in one volume of pretreatment solution (0.2M citric acid and 0.5% Tween 20) and incubated at RT for 20 minutes with gentle shaking. Subsequently, 9 volumes of the staining solution containing […] hydrogen phosphate and 5 μM 4', 6-diamidino-2-phenylindole (DAPI) will be added to raise the pH to ~7.0 and stain the DNA. The stained cells are stable for 24-48 hours, so can be shipped and/or transported by PI to Dr. Manimekalai's Laboratory where we will obtain flow cytometric histograms of the DNA content of the sperm nuclei. […] Estimated DNA synthesis for the sperm nuclei incubated in extract containing aphidicolin will be determined, and determine if it is in the 20-30% range (observed using the autoradiographic approach) when compared to the estimated DNA synthesis for the sperm nuclei incubated in extract without aphidicolin. […] Staining approaches that can be followed by quantitative flow cytometry include the use of Hoechst 33342 (64) and acridine orange (96)."}, "rats": {"test_system": "rats", "details": "cited from earlier work"}}, "note": "Values joined by “and” are separate entries in the source; they are usually repeats but may differ in a detail not shown here. Identical values can stand only once. “Also recorded” adds a separate entry of the source."}
{"smiles": "O[C@H](CS)[C@H](O)CS", "note": "(racemic) [DTT, Dithiothreitol]", "values": [{"measurement": "effect of pretreatment on decondensation and DNA synthesis events", "setting": "[1]", "result": "enhance the decondensation and DNA synthesis \"activation\" events"}]}
{"smiles": "CS(=O)(=O)OCCCCOS(C)(=O)=O", "note": "[Busulfan]", "values": [{"measurement": "male reproductive toxicity, in words", "setting": "male reproductive system", "result": "kills reserve and differentiating operamatogonia and reserve stem cell populations in the testis"}]}
{"smiles": "O=C(CCC(=O)ON1C(=O)CC(S(=O)(=O)O)C1=O)OCCOC(=O)CCC(=O)ON1C(=O)CC(S(=O)(=O)O)C1=O", "note": "(stereo not drawn) [SEGS]", "values": [{"measurement": "inhibition at 3400 µM", "setting": "[2]; Homo sapiens, Sperm, 3.4 mM SEGS, read-out: sperm in which decondensation was prevented", "result": "> 75", "unit": "%"}, {"measurement": "effect on sperm chromatin decondensation, in words (SEGS)", "setting": "[2]", "result": "abnormal decondensation responses; also recorded: abnormal chromatin decondensation; also recorded: did not decondense; also recorded: do not decondense"}, {"measurement": "effect on sperm chromatin decondensation, in words (SEGS)", "setting": "[2]; listed as SULFO-EGS", "result": "block decondensation"}, {"measurement": "level to which decondensation is inhibited", "setting": "[2]; as low as, permeabilized sperm", "result": "20 % of the control"}]}
{"smiles": "O=C(O)c1cc(/N=N/c2ccc(S(=O)(=O)Nc3ccccn3)cc2)ccc1O", "note": "[Sulfasalazine]", "values": [{"measurement": "male reproductive toxicity, in words", "setting": "male reproductive system", "result": "reduced sperm count and fertilizing capability affected in treated patients"}]}
{"smiles": "C[C@@]1(CO)[C@H](O)CC[C@@]2(C)[C@H]1CC[C@H]1C[C@@H]3C[C@@]12CC[C@]3(O)CO", "note": "[aphidicolin]", "values": [{"measurement": "DNA synthesis (previously demonstrated, ref. 17)", "setting": "human sperm nuclei [3]", "result": "blocked"}, {"measurement": "decondensation of sperm nuclei (previously demonstrated, ref. 17)", "setting": "human sperm nuclei [3]", "result": "normal"}, {"measurement": "recondensation of sperm nuclei (previously demonstrated, ref. 17)", "setting": "human sperm nuclei [3]", "result": "normal"}, {"measurement": "inhibition of DNA polymerase alpha", "setting": "DNA polymerase alpha", "result": "known inhibitor of DNA polymerase alpha"}, {"measurement": "% labelled nuclei in extract containing aphidicolin / % labelled nuclei without aphidicolin × 100, expected", "setting": "human sperm nuclei [4]; aphidicolin 10 μg/ml, 2 hours, autoradiography", "result": "20-30%"}, {"measurement": "DNA synthesis", "setting": "human sperm nuclei [4]; extract containing aphidicolin", "result": "blocked"}, {"measurement": "decondensation of sperm nuclei", "setting": "human sperm nuclei [4]; extract containing aphidicolin", "result": "normal"}, {"measurement": "recondensation of sperm nuclei", "setting": "human sperm nuclei [4]; extract containing aphidicolin", "result": "normal"}]}
{"smiles": "O=P1(N(CCCl)CCCl)NCCCO1", "note": "(stereo not drawn) [cyclophosphamide]", "values": [{"measurement": "effect on pre- and postimplantation loss", "setting": "rats", "result": "increasing pre- and postimplantation loss"}, {"measurement": "decondensation of sperm from treated rats", "setting": "rats; six weeks treatment", "result": "do not decondense"}]}
{"smiles": "NO", "note": "[hydroxylamine]", "values": [{"measurement": "effect on decondensation, in words (hydroxylamine alone)", "setting": "[2]", "result": "normal decondensation; also recorded: no effect on decondensation"}, {"measurement": "sperm decondensed, hydroxylamine given alone", "setting": "[2]; 5 μM hydroxylamine 5 hours, pH 8.5, 15 minutes in the extract", "result": "92.0±2.8", "unit": "%"}, {"measurement": "effect on decondensation, in words (hydroxylamine alone)", "setting": "[2]; listed as Hydroxylamine", "result": "no effect"}, {"measurement": "sperm decondensed after crosslinking with SEGS and then treatment with hydroxylamine", "setting": "[2]; 3.4 mM SEGS 30 min, then 5 μM hydroxylamine 5 hours, 15 minutes in the extract", "result": "76% and 76.0±5.9%"}, {"measurement": "reversal of SEGS crosslinks / restoration of decondensation, in words", "setting": "[2]", "result": "restored, normal decondensation; also recorded: able to remove the crosslinker; also recorded: able to reverse most of the crosslinks; also recorded: reversed the damage"}, {"measurement": "reversal of SEGS crosslinks / restoration of decondensation, in words", "setting": "[2]; listed as Hydroxylamine", "result": "restore normal decondensation"}, {"measurement": "effect on decondensation, in words (higher hydroxylamine concentrations)", "setting": "[2]; hydroxylamine higher than 5 μM", "result": "adverse effect on decondensation"}]}
